Results on 58 molecules are retold here after the METLIN SMRT retention time set (Domingo-Almenara et al. 2019).

The nature of the data set: gradient 5% acetonitrile 3 min, to 50% in 2 min, to 85% in 15 min, held 3 min, 100 µL/min. Particulars: column: Zorbax Extend-C18 2.1 x 50 mm; eluents: water / acetonitrile, 0.1% formic acid. Summed up:
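A Zorbax Extend-C18 column (2.1 × 50 mm, 1.8 μm) run at 100 μL/min with water and acetonitrile, both containing 0.1% formic acid, separated mixtures of ~100 pure standards. The HPLC was coupled to a quadrupole time-of-flight mass spectrometer operated in positive and negative ionization mode, with dead and dwell volumes of 40 μL and 900 μL. Each retention time was taken from a computationally picked adduct peak that was then manually inspected.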
The molecule `O=C(Cc1cccs1)Nc1nnc(Cc2ccc(F)cc2)o1` showed an RP-LC retention time of 707 s.

The molecule `Cc1cc(C(=O)NC2CC2)c2cc(Br)ccc2n1` gave an RP-LC retention time of 664 s.

As for `COc1cccc2c1C(=O)c1c(O)c3c(c(O)c1C2=O)C[C@@](O)(C(C)=O)C[C@@H]3OC1CC(N(C)C)C(O)C(C)O1` (stereo partly drawn), the RP-LC retention time stood at 666 s. Molecule `Cc1nn2c(CNS(=O)(=O)Cc3ccc(Cl)cc3)c(-c3ccccc3)nc2s1` had an RP-LC retention time of 954 s.

On to `Cc1ccc(C(=O)COc2cc(O)c3c(=O)cc(-c4ccccc4)oc3c2)cc1`, for which the RP-LC retention time worked out at 1210 s. As to `CCOC(=O)c1c(S(=O)(=O)N2CCC(C(=O)Nc3cccc(CC)c3)CC2)c(C)n(CC)c1C`, the RP-LC retention time was determined as 984 s. Next, `C=CCNc1nc(-c2cccc([N+](=O)[O-])c2)cs1`: 949 s; `CC1CCCCN1S(=O)(=O)c1cc(-c2nnc(C3CCCC3)o2)co1` (stereo not drawn): 1060 s; `CCNc1cc(N2CCC(CCC(=O)Nc3ccc4c(c3)OCCO4)CC2)ncn1`: 572 s. Next, `CCOC(=O)c1cnn(-c2ccc(C(=O)Nc3ccc(Br)cc3)cn2)c1N`: 1020 s; `CCc1ccc(NC(=O)C2CCN(S(=O)(=O)c3cc(C(=O)N4CCOCC4)cs3)CC2)cc1`: 859 s. Molecule `Cc1cc(C)n(-c2ccc(=O)n(CCNC(=O)CCn3cnc4ccccc4c3=O)n2)n1` returned an RP-LC retention time of 605 s. In the case of `CN1CCC[C@@H]1Cc1c[nH]c2ccc(CCS(=O)(=O)c3ccccc3)cc12`, the RP-LC retention time is 604 s. To `CCOC(=O)c1c(C)oc2nc(C)nc(Nc3ccc(C)c(F)c3)c12` belongs 1360 s. As for `Cc1ccc(-c2noc(C3CCCN3S(=O)(=O)c3ccc(Cl)cc3C)n2)cc1` (stereo not drawn), the RP-LC retention time was determined as 1320 s.

`CN1CCN(S(=O)(=O)c2c[nH]c(=O)[nH]c2=O)CC1`: the RP-LC retention time was 720 s.

As to `COc1cc(C(=O)Nc2nc(-c3ccc(C)cc3)cs2)c(Br)c(OC)c1OC`, the RP-LC retention time is 1120 s. Molecule `COCCn1cc2c3c(cccc31)CN(C(=O)Cc1c(F)cccc1Cl)CC2` returned an RP-LC retention time of 967 s. To `CCOc1ccc(NS(=O)(=O)c2cc(C(=O)Nc3ccc(C)c(C)c3)n[nH]2)cc1` belongs 902 s. Take `COc1ccccc1Cc1noc(C2CN(C(=O)c3ccc4nsnc4c3)C2)n1`: the RP-LC retention time came to 814 s.

With `Cc1noc(-c2ccc(OC3CN(C(=O)NCc4ccc(F)cc4)C3)cc2)n1`, the RP-LC retention time came to 831 s. `COc1cccc(-c2cc(C(N)=O)n(C)n2)c1` returned an RP-LC retention time of 646 s.

For the molecule `N#Cc1ccc(NS(=O)(=O)c2c[nH]c3ncccc23)cc1`, the RP-LC retention time stood at 686 s.

In the case of `O=C(c1cnn2cc(Br)cnc12)N1CCCC1c1ccccc1F` (stereo not drawn), the RP-LC retention time came to 841 s.

For `CCCn1c(=O)sc2cc(S(=O)(=O)N3CCC(C(=O)Nc4ccc(C)c(F)c4)CC3)ccc21`, the RP-LC retention time worked out at 1060 s. Consider `COc1ccc(C2(C(=O)N3CCC(Oc4ccc(-c5noc(C)n5)cc4)C3)CC2)cc1` (stereo not drawn), for which the RP-LC retention time was found to be 913 s.

With `COC(=O)c1cnc2nc(C)ccc2c1NCc1cccc(Cl)c1`, the RP-LC retention time stood at 733 s. To `CCN1C(=O)COc2ccc(-c3csc(NC(=O)c4ccccc4F)n3)cc21` belongs 968 s; to `COc1ccc(Cl)cc1NC(=O)N1CCc2c(c(-c3nnc(-c4ccc(F)cc4)o3)nn2C)C1`, 993 s. Next, `Cc1cc(C)n(C(=O)c2ccc(Cl)cc2[N+](=O)[O-])n1`: 927 s. Next, `COc1ccc(-n2c(=O)c(C(=O)Nc3cccc(Cl)c3)c(O)c3cccnc32)cc1`: 1370 s. On to `O=C(COc1ccc(F)cc1)N1CCOc2ccc(N3CCOCC3)cc2C1`, for which the RP-LC retention time was found to be 787 s. `CN1c2cc(F)ccc2C(=O)NC12CCN(C(=O)Nc1ccccc1F)CC2`: the RP-LC retention time was determined as 735 s.

`CCS(=O)(=O)c1ccc2c(c1)N(Cc1nc(-c3ccccc3Cl)no1)C(=O)CO2` gave an RP-LC retention time of 895 s.

Take `COc1cccc(C2CC(c3ccc(F)cc3)=NC3(CCN(C(C)=O)CC3)N2)c1O` (stereo not drawn): the RP-LC retention time came out at 656 s.

With `CN1C(=O)C(C)(C(=O)Nc2ccccc2F)Oc2cccnc21` (stereo not drawn), the RP-LC retention time came to 780 s.

`CSc1ccccc1CN1CCC(CNC(=O)C(=O)NCc2ccc(F)cc2)CC1` registered an RP-LC retention time of 595 s. Next, `CCCNC(=O)N1CCC(c2noc(-c3ccccn3)n2)C1` (stereo not drawn): 648 s.

For `O=C(N[C@H]1C[C@@H]2C[C@H]1CN2S(=O)(=O)c1cccc2cccnc12)c1ccccc1`, the RP-LC retention time is 792 s. The molecule `COc1ccccc1CCNC(=O)Cn1cc(S(=O)(=O)c2ccccc2)c2ccccc21` registered an RP-LC retention time of 898 s. Regarding `CCS(=O)(=O)c1nc2ccc(NS(=O)(=O)c3c(C)c(C)cc(C)c3C)cc2s1`, the RP-LC retention time is 1020 s. `O=C(Cn1nc(S(=O)(=O)c2cccc(F)c2)ccc1=O)N1CCN(c2ccc(F)cc2)CC1` showed an RP-LC retention time of 882 s. As for `CCn1nccc1-c1cccc(-c2noc(C(C)NC(=O)c3ccccc3)n2)c1` (stereo not drawn), the RP-LC retention time turned out to be 929 s. To `N#Cc1cccc(-c2cn3c(n2)N(C(=O)c2cccnc2)CCC3)c1` belongs 641 s. Next, `CCNC(=O)c1csc(N2CCCC2)n1`: 723 s; `CO[C@@H]1C=C2CCN(C)[C@@H]2C2c3cc4c(cc3C(=O)O[C@H]21)OCO4` (stereo partly drawn): 636 s; `Cc1cc2c(=O)n(CC(=O)Nc3cccc(Br)c3)ccc2s1`: 850 s.

Molecule `Cc1cc(C)c2c(N3CCCCC3)nc(C(=O)NCCN3CCOCC3)nc2n1` had an RP-LC retention time of 550 s. To `CN(C)C(=O)c1cn(C2CN(C(=O)c3cccc(C#N)c3)C2)nn1` belongs 613 s; to `COc1ccc(-c2csc(NC(=O)Nc3c(F)cccc3F)n2)cc1OC`, 770 s. For `CC(=O)Nc1ccc(NC(=O)c2cccc(N3C(=O)NC4CC3(C)Oc3ccccc34)c2)cc1` (stereo not drawn), the RP-LC retention time was 702 s.

In turn, `Fc1ccc(-c2noc(Cc3nnc(-c4cccc(Br)c4)o3)n2)cc1` had an RP-LC retention time of 1120 s. Consider `CCN1CCCn2cc(S(=O)(=O)N3CCN(c4cccc(Cl)c4)CC3)cc2C1=O`, for which the RP-LC retention time is 894 s. `CCN1C(=O)COc2ccc(-c3csc(NC(=O)c4cc(OC)cc(OC)c4)n3)cc21` registered an RP-LC retention time of 1050 s. Molecule `O=C(NC1CCCC1)C1CCCN(S(=O)(=O)Cc2ccc(Cl)cc2)C1` (stereo not drawn) gave an RP-LC retention time of 910 s. For `CCn1c(=O)c2c(nc3n2CCCN3C2CCCCC2)n(C)c1=O`, the RP-LC retention time is 899 s. Next, `CN(Cc1ccccc1)C(=O)c1ccc(NC(=O)[C@H]2[C@@H]3C[C@@H]4[C@H]2C(=O)O[C@@H]4C3)cc1`: 775 s. To `Cc1cc2nn(CC(=O)Nc3cc(F)cc(F)c3)c(=O)n2c(Nc2ccccc2)n1` belongs 1040 s.
